In patent US20070218456A1, “CELLULAR ASSAYS FOR SIGNALING RECEPTORS” (INVITROGEN CORPORATION, priority 2006, published 2007):
Converted amounts (≈) assume the structure as drawn.

Tests used:
[1] = system: T-REx™-G2A-NFAT-bla Freestyle™293F cells; test: T-REx G2A NFAT-bla Freestyle 293F beta-lactamase reporter assay (inducer dose response); conditions: for EC50: Homo sapiens, FreeStyle 293-F
Procedure: In order to control the levels of G2A expression, G2A was placed under the control of an inducible promoter using Invitrogen's T-REx™ system. To again assess feasibility, pcDNA 5 G2A/TO was transiently transfected into CRE-bla Freestyle™ and NFAT-bla Freestyle™ cell lines stably expressing the T-REx™ Tet repressor plasmid (pcDNA6/TR; e.g., catalog# V1025-20, Invitrogen, Carlsbad, Calif.). The transfected cells were then treated with 10 ug/mL, 1 ug/mL, or 100 ng/mL tetracycline for 24 h to induce G2A expression. […] Stable pools of cells were created in both the TR CRE-bla and TR NFAT-bla Freestyle™293F backgrounds.
Stimulation Kinetics—Selected pools of both CRE-bla and NFAT-bla T-REx™ G2A Freestyle™ cells were stimulated with tetracycline for 3, 4, 5, or 24 h and loaded for 2 h with 1 μM LiveBLAzer™-FRET B/G substrate.
To improve the balance between tetracycline-induced signaling and cell death by testing shorter induction times, lower tetracycline concentrations and altered culture conditions were utilized to promote cell health. A 16 h tetracycline stimulation time was attempted on the pools from the first sort. Cells were plated at 10,000 cells/well 24 hours prior to assay in DMEM+10% dFBS and incubated at 37° C./5% CO2 until time of assay. The cells were stimulated for 16 hours (e.g., overnight) with a dilution series of the tetracycline. Following stimulation, the cells were loaded for 2 hours at room temperature in the dark with LiveBLAzer™-FRET B/G loading solution containing 1 μM substrate. This assay was done in Poly-D-Lysine coated plates.
Since G2A has no known agonists, doxycycline and tetracycline were compared as inducers of the assay. An antibiotic selected pool of cells were plated at 10,000 cells/well 24 hours prior to assay in DMEM+10% dFBS and incubated at 37° C./5% CO2 until time of assay. The cells were stimulated with a dilution series of each compound for 16 hours at 37° C./5% CO2 and loaded for 2 hours at room temperature in the dark with LiveBLAzer™-FRET B/G loading solution containing 1 μM substrate.
Cell Density/well—The influence of cell-plating density on assay performance was tested to find the density giving the best response and Z′ while maintaining the expected pharmacology. Cells were plated 24 hours prior to the assay at the densities indicated in FIG. 14 in DMEM+10% dFBS and incubated at 37° C./5% CO2 until the time of assay. The cells were stimulated for 16 hours at 37° C./5% CO2 with a dilution series of the doxycycline. After incubation, the cells were loaded for 2 hours at room temperature in the dark with LiveBLAzer™-FRET B/G loading solution containing 1 μM substrate.
DMSO Tolerance—Tests were performed related to assay performance as a function of DMSO concentration to determine the robustness of the assay to the range of DMSO challenge routinely encountered during high-throughput screening. Dose response curves were performed in the presence of 0%, 0.25%, 0.5%, or 1% DMSO. Cells were plated at 10,000 cells/well 24 hours prior to assay in DMEM+10% dFBS and incubated at 37° C./5% CO2 until time of assay. After incubation, DMSO was added to the wells to final concentrations of 0%, 0.25%, 0.5% and 1% DMSO. The cells were stimulated for 16 hours with a dilution series of the doxycycline. Following stimulation, the cells were loaded for 2 hours at room temperature in the dark with LiveBLAzer™-FRET B/G loading solution containing 1 μM substrate.
The substrate loading times were varied to find the time for an optimal assay performance. Cells were plated at 10,000 cells/well 24 hours prior to assay in DMEM+10% dFBS and incubated at 37° C./5% CO2 until time of assay. After incubation, DMSO was added to the wells to final concentration of 0.5%.

[2] = system: TREx™-mG2A-NFAT-bla Freestyle293F cells; test: TREx-mG2A-NFAT-bla Freestyle293F (mouse G2A) doxycycline response; type: cell-based; conditions: Homo sapiens, FreeStyle 293-F, 16 h
Procedure: TREx™-mG2A-NFAT-bla Freestyle293F cells were stimulated for 16 hours with doxycycline in the presence of 0.5% DMSO. Cells were then loaded with LiveBLAzer™-FRET B/G (CCF4-AM) for 2 hours. Fluorescence emission values at 460 nm and 530 nm are obtained using a standard florescence plate reader and the Blue/Green Emission ratios are plotted against the concentration of the stimulant.

[3] = 60 min substrate loading, 10,000 cells/well, 0.5% DMSO, 16 h
[4] = 90 min substrate loading, 10,000 cells/well, 0.5% DMSO, 16 h
[5] = 120 min substrate loading, 10,000 cells/well, 0.5% DMSO, 16 h
[6] = representative data, 16 h, 0.5% DMSO, 2 h loading

## C[C@H]1c2cccc(O)c2C(=O)C2=C(O)[C@]3(O)C(=O)C(C(N)=O)=C(O)[C@@H](N(C)C)[C@@H]3[C@@H](O)[C@@H]21 [Doxycycline]
[1]; 0.0% DMSO, 10,000 cells/well, 16 h
  RR (Max): 6.9
[1]; 0.25% DMSO, 10,000 cells/well, 16 h
  RR (Max): 7.2
[1]; 0.50% DMSO, 10,000 cells/well, 16 h
  RR (Max): 6.5
[1]; 1.00% DMSO, 10,000 cells/well, 16 h
  RR (Max): 5.4
[1]; 1,250 cells/well, clone #20, 16 h, 0.5% DMSO
  RR (Max): 3.51
[1]; 2,500 cells/well, clone #20, 16 h, 0.5% DMSO
  RR (Max): 4.8
[1]; [3]
  RR (Max): 4.5
  EC50: 0.162 ng/mL (≈ 0.364 nM)
[1]; 5,000 cells/well, clone #20, 16 h, 0.5% DMSO
  RR (Max): 5.93
[1]; [4]
  RR (Max): 6.5
  EC50: 0.151 ng/mL (≈ 0.34 nM)
[1]; [5]
  RR (Max): 6.5
  EC50: 0.172 ng/mL (≈ 0.388 nM)
[1]; 10,000 cells/well, clone #20, 16 h, 0.5% DMSO
  RR (Max): 7.7
[1]; Average of DR 1-3
  RR (Max): 5.77
  EC50: 0.132 ng/mL (≈ 0.297 nM)
[1]; DR 1 (reproducibility, separate day)
  RR (Max): 5.36
[1]; DR 2 (reproducibility, separate day)
  RR (Max): 5.95
[1]; DR 3 (reproducibility, separate day)
  RR (Max): 5.99
[1]; Fresh cells taken from culture
  RR (Max): 5.99
[1]; Frozen cells thawed immediately before use
  RR (Max): 2.48
[1]; 16 h, 0.0% DMSO, 10,000 cells/well
  EC50: 0.159 ng/mL (≈ 0.358 nM)
[1]; 16 h, 0.25% DMSO, 10,000 cells/well
  EC50: 0.197 ng/mL (≈ 0.444 nM)
[1]; 16 h, 0.50% DMSO, 10,000 cells/well
  EC50: 0.172 ng/mL (≈ 0.388 nM)
[1]; 16 h, 1.00% DMSO, 10,000 cells/well
  EC50: 0.187 ng/mL (≈ 0.422 nM)
[1]; 16 h, 1,250 cells/well, clone #20, 16 h, 0.5% DMSO
  EC50: 0.305 ng/mL (≈ 0.687 nM)
[1]; 16 h, 2,500 cells/well, clone #20, 16 h, 0.5% DMSO
  EC50: 0.216 ng/mL (≈ 0.485 nM)
[1]; 16 h, 5,000 cells/well, clone #20, 16 h, 0.5% DMSO
  EC50: 0.199 ng/mL (≈ 0.447 nM)
[1]; 16 h, 10,000 cells/well, clone #20, 16 h, 0.5% DMSO
  EC50: 0.291 ng/mL (≈ 0.655 nM)
[1]; 16 h, DR 1 (reproducibility, separate day), 10,000 cells/well, 0.5% DMSO
  EC50: 0.246 ng/mL (≈ 0.553 nM)
[1]; 16 h, DR 2 (reproducibility, separate day), 10,000 cells/well, 0.5% DMSO
  EC50: 0.0963 ng/mL (≈ 0.217 nM)
[1]; 16 h, DR 3 (reproducibility, separate day), 10,000 cells/well, 0.5% DMSO
  EC50: 0.0533 ng/mL (≈ 0.12 nM)
[1]; 16 h, Fresh cells taken from culture, 10,000 cells/well
  EC50: 0.0533 ng/mL (≈ 0.12 nM)
[1]; 16 h, Frozen cells thawed immediately before use, 10,000 cells/well, 16 h
  EC50: > 0.985 ng/mL
[1]; antibiotic selected pool, 10,000 cells/well, 16 h stimulation, 2 h loading
  EC50: 1.6 ng/mL (≈ 3.6 nM)
[1]; [6]
  EC50: 0.05 ng/mL (≈ 0.113 nM)
  EC100: 2.2 ng/mL
[1]; antibiotic selected pool, 10,000 cells/well, 16 h stimulation
  RR (Max): 3.3
[1]; antibiotic selected pool, 16 h
  times more potent than tetracycline: ~30 times
[2]; clone #2, 0.5% DMSO
  EC50: 0.386 ng/mL (≈ 0.869 nM)
[2]; clone #25, 0.5% DMSO
  EC50: 1.12 ng/mL (≈ 2.52 nM)
[2]; clone #53, 0.5% DMSO
  EC50: 0.524 ng/mL (≈ 1.18 nM)
